Structures are written as SMILES. Positions of bridges follow the written chain, without caps; N, C: chain ends. Residues, ends and D or L forms follow the SMILES beside them.

The nature of one data set: Solubility in solvent. The class given is physicochemical.
Data set [1] in a line: Grouping for acidic, neutral and basic. It is filed as physicochemical.

Take `CCC(C)C(NC(=O)C(NC(=O)C(CC(N)=O)NC(=O)C(CO)NC(=O)C(Cc1c[nH]cn1)NC(=O)CNC(=O)C(NC(=O)C(Cc1c[nH]c2ccccc12)NC(=O)C1CCC(=O)NCC(=O)NC(CO)C(=O)NC(CCC(N)=O)C(=O)NC(CC(C)C)C(=O)NC(C(C)C)C(=O)NC(Cc2ccc(O)cc2)C(=O)NC(CCCNC(=N)N)C(=O)N1)C(C)C)C(C)C)C(=O)NC(CCCCN)C(=O)N1CCCC1C(=O)O` (stereo not shown) [K01-B0171-B substance] (GSQLVYREWVGHSNVIKP-OH; lactam N-8; configuration not given here): the Solubility in solvent entry in the data set “Solubility in solvent” is “soluble in water, dimethyl sulfoxide (DMSO), methanol and ethanol, and insoluble in acetonitrile, ethyl acetate, chloroform and acetone”. The “Grouping for acidic, neutral and basic” value in data set [1] was “Weak basic substance”.
For the compound `CCC(C)C(NC(=O)C(NC(=O)C(CC(N)=O)NC(=O)C(CO)NC(=O)C(Cc1c[nH]cn1)NC(=O)CNC(=O)C(NC(=O)C(Cc1c[nH]c2ccccc12)NC(=O)C1CCC(=O)NCC(=O)NC(CO)C(=O)NC(CCC(N)=O)C(=O)NC(CC(C)C)C(=O)NC(C(C)C)C(=O)NC(Cc2ccc(O)cc2)C(=O)NC(CCCNC(=N)N)C(=O)N1)C(C)C)C(C)C)C(=O)NC(CCCCN)C(=O)NCC(=O)N1CCCC1C(=O)N1CCCC1C(=O)O` (stereo not shown) [K01-B0171-C substance] (GSQLVYREWVGHSNVIKGPP-OH; lactam N-8; configuration not given here), the Solubility in solvent entry in the data set “Solubility in solvent” is “soluble in water, dimethyl sulfoxide (DMSO), methanol and ethanol, and insoluble in acetonitrile, ethyl acetate, chloroform and acetone”. Besides, in data set [1], the “Grouping for acidic, neutral and basic” value was “Weak basic substance”.

These data come from US7439225B2, “Substances K01-B0171 and process for producing the same” (The Kitasato Institute, priority 2003, dated 2008).
